ChEMBL document CHEMBL4393697, “Lipophilic efficient phenylthiazoles with potent undecaprenyl pyrophosphatase inhibitory activity” (Eur J Med Chem, 2019)
In brackets after ≈: the same amount, converted by molar mass.

How the values were obtained:
Staphylococcus aureus [1] = assay: Antibacterial activity against methicillin resistant Staphylococcus aureus USA400 assessed as reduction in bacterial cell growth incubated for 18 to 20 hrs by broth microdilution method; assay type: functional
Staphylococcus aureus [2] = assay: Antibacterial activity against Staphylococcus aureus NRS107 assessed as reduction in bacterial cell growth incubated for 18 to 20 hrs by broth microdilution method; assay type: functional
Acinetobacter baumannii [3] = assay: Bactericidal activity against Acinetobacter baumannii ATCC 19606 assessed as reduction in bacterial cell growth incubated for 18 to 20 hrs followed by re-plating on tryptic soy agar plates at 37 degC for 18 hrs by broth microdilution assay; assay type: functional
Staphylococcus aureus [4] = assay: Bactericidal activity against methicillin-resistant Staphylococcus aureus USA300 assessed as reduction in bacterial cell growth incubated for 18 to 20 hrs followed by re-plating on tryptic soy agar plates at 37 degC for 18 hrs by broth microdilution assay; assay type: functional
Staphylococcus aureus [5] = assay: Bactericidal activity against vancomycin resistant Staphylococcus aureus VRS11a assessed as reduction in bacterial cell growth incubated for 18 to 20 hrs followed by re-plating on tryptic soy agar plates at 37 degC for 18 hrs by broth microdilution assay; assay type: functional
[6] = tested on: Staphylococcus epidermidis; assay: Antibacterial activity against methicillin resistant Staphylococcus epidermidis NRS101 assessed as reduction in bacterial cell growth incubated for 18 to 20 hrs by broth microdilution method; assay type: functional
[7] = tested on: Staphylococcus epidermidis; assay: Bactericidal activity against methicillin resistant Staphylococcus epidermidis NRS101 assessed as reduction in bacterial cell growth incubated for 18 to 20 hrs followed by re-plating on tryptic soy agar plates at 37 degC for 18 hrs by broth microdilution assay; assay type: functional
Staphylococcus aureus [8] = assay: Antibacterial activity against vancomycin resistant Staphylococcus aureus VRS12 assessed as reduction in bacterial cell growth incubated for 18 to 20 hrs by broth microdilution method; assay type: functional
Escherichia coli [9] = assay: Antibacterial activity against Escherichia coli JW55031 harboring deltatolC mutant assessed as reduction in bacterial cell growth incubated for 18 to 20 hrs by broth microdilution method; assay type: functional
Staphylococcus aureus [10] = assay: Antibacterial activity against methicillin resistant Staphylococcus aureus NRS119 assessed as reduction in bacterial cell growth incubated for 18 to 20 hrs by broth microdilution method; assay type: functional
[11] = Solubility of compound in PBS after 2 hrs by turbidity based absorbance analysis; assay type: physicochemical
Streptococcus pneumoniae [12] = assay: Antibacterial activity against Cephalosporin resistant Streptococcus pneumoniae ATCC 51916 assessed as reduction in bacterial cell growth incubated for 18 to 20 hrs by broth microdilution method; assay type: functional
Staphylococcus aureus [13] = assay: Bactericidal activity against Staphylococcus aureus NRS107 assessed as reduction in bacterial cell growth incubated for 18 to 20 hrs followed by re-plating on tryptic soy agar plates at 37 degC for 18 hrs by broth microdilution assay; assay type: functional
Listeria monocytogenes [14] = assay: Bactericidal activity against Listeria monocytogenes ATCC 19111 assessed as reduction in bacterial cell growth incubated for 18 to 20 hrs followed by re-plating on tryptic soy agar plates at 37 degC for 18 hrs by broth microdilution assay; assay type: functional
Staphylococcus aureus [15] = assay: Bactericidal activity against methicillin resistant Staphylococcus aureus NRS119 assessed as reduction in bacterial cell growth incubated for 18 to 20 hrs followed by re-plating on tryptic soy agar plates at 37 degC for 18 hrs by broth microdilution assay; assay type: functional
Streptococcus pneumoniae [16] = assay: Bactericidal activity against Methicillin resistant Streptococcus pneumoniae ATCC 700677 assessed as reduction in bacterial cell growth incubated for 18 to 20 hrs followed by re-plating on tryptic soy agar plates at 37 degC for 18 hrs by broth microdilution assay; assay type: functional
Staphylococcus aureus [17] = assay: Bactericidal activity against Staphylococcus aureus ATCC 6538 assessed as reduction in bacterial cell growth incubated for 18 to 20 hrs followed by re-plating on tryptic soy agar plates at 37 degC for 18 hrs by broth microdilution assay; assay type: functional
Pseudomonas aeruginosa [18] = assay: Bactericidal activity against Pseudomonas aeruginosa ATCC 15442 assessed as reduction in bacterial cell growth incubated for 18 to 20 hrs followed by re-plating on tryptic soy agar plates at 37 degC for 18 hrs by broth microdilution assay; assay type: functional
Escherichia coli [19] = assay: Antibacterial activity against Escherichia coli BW25113 assessed as reduction in bacterial cell growth incubated for 18 to 20 hrs by broth microdilution method; assay type: functional
Escherichia coli [20] = assay: Bactericidal activity against Escherichia coli JW55031 harboring deltatolC mutant assessed as reduction in bacterial cell growth incubated for 18 to 20 hrs followed by re-plating on tryptic soy agar plates at 37 degC for 18 hrs by broth microdilution assay; assay type: functional
Streptococcus pneumoniae [21] = assay: Antibacterial activity against Methicillin resistant Streptococcus pneumoniae ATCC 700677 assessed as reduction in bacterial cell growth incubated for 18 to 20 hrs by broth microdilution method; assay type: functional
Staphylococcus aureus [22] = assay: Bactericidal activity against vancomycin resistant Staphylococcus aureus VRS12 assessed as reduction in bacterial cell growth incubated for 18 to 20 hrs followed by re-plating on tryptic soy agar plates at 37 degC for 18 hrs by broth microdilution assay; assay type: functional
Streptococcus pneumoniae [23] = assay: Bactericidal activity against Cephalosporin resistant Streptococcus pneumoniae ATCC 51916 assessed as reduction in bacterial cell growth incubated for 18 to 20 hrs followed by re-plating on tryptic soy agar plates at 37 degC for 18 hrs by broth microdilution assay; assay type: functional
Staphylococcus aureus [24] = assay: Antibacterial activity against vancomycin resistant Staphylococcus aureus VRS10 assessed as reduction in bacterial cell growth incubated for 18 to 20 hrs by broth microdilution method; assay type: functional
J774 = assay: Cytotoxicity against mouse J774 assessed as reduction in cell viability at 16 ug/ml incubated for 24 hrs by MTS assay; assay type: cell-based; conditions: j774, 24 h
Klebsiella pneumoniae [25] = assay: Antibacterial activity against Klebsiella pneumoniae BAA-1706 assessed as reduction in bacterial cell growth incubated for 18 to 20 hrs by broth microdilution method; assay type: functional
Enterococcus faecalis [26] = assay: Bactericidal activity against vancomycin resistant Enterococcus faecalis ATCC 51299 assessed as reduction in bacterial cell growth incubated for 18 to 20 hrs followed by re-plating on tryptic soy agar plates at 37 degC for 18 hrs by broth microdilution assay; assay type: functional
Enterococcus faecium [27] = assay: Antibacterial activity against vancomycin resistant Enterococcus faecium ATCC 700221 assessed as reduction in bacterial cell growth incubated for 18 to 20 hrs by broth microdilution method; assay type: functional
Klebsiella pneumoniae [28] = assay: Bactericidal activity against Klebsiella pneumoniae BAA-1706 assessed as reduction in bacterial cell growth incubated for 18 to 20 hrs followed by re-plating on tryptic soy agar plates at 37 degC for 18 hrs by broth microdilution assay; assay type: functional
Staphylococcus aureus [29] = assay: Bactericidal activity against vancomycin resistant Staphylococcus aureus VRS10 assessed as reduction in bacterial cell growth incubated for 18 to 20 hrs followed by re-plating on tryptic soy agar plates at 37 degC for 18 hrs by broth microdilution assay; assay type: functional
Staphylococcus aureus [30] = assay: Antibacterial activity against Staphylococcus aureus ATCC 6538 assessed as reduction in bacterial cell growth incubated for 18 to 20 hrs by broth microdilution method; assay type: functional
Enterococcus faecalis [31] = assay: Antibacterial activity against vancomycin resistant Enterococcus faecalis ATCC 51299 assessed as reduction in bacterial cell growth incubated for 18 to 20 hrs by broth microdilution method; assay type: functional
Pseudomonas aeruginosa [32] = assay: Antibacterial activity against Pseudomonas aeruginosa ATCC 15442 assessed as reduction in bacterial cell growth incubated for 18 to 20 hrs by broth microdilution method; assay type: functional
Enterococcus faecium [33] = assay: Bactericidal activity against vancomycin resistant Enterococcus faecium ATCC 700221 assessed as reduction in bacterial cell growth incubated for 18 to 20 hrs followed by re-plating on tryptic soy agar plates at 37 degC for 18 hrs by broth microdilution assay; assay type: functional
Staphylococcus aureus [34] = assay: Antibacterial activity against vancomycin resistant Staphylococcus aureus VRS11a assessed as reduction in bacterial cell growth incubated for 18 to 20 hrs by broth microdilution method; assay type: functional
Escherichia coli [35] = assay: BActericidal activity against Escherichia coli BW25113 assessed as reduction in bacterial cell growth incubated for 18 to 20 hrs followed by re-plating on tryptic soy agar plates at 37 degC for 18 hrs by broth microdilution assay; assay type: functional
Listeria monocytogenes [36] = assay: Antibacterial activity against Listeria monocytogenes ATCC 19111 assessed as reduction in bacterial cell growth incubated for 18 to 20 hrs by broth microdilution method; assay type: functional
Staphylococcus aureus [37] = assay: Antibacterial activity against methicillin-resistant Staphylococcus aureus USA300 assessed as reduction in bacterial cell growth incubated for 18 to 20 hrs by broth microdilution method; assay type: functional
Acinetobacter baumannii [38] = assay: Antibacterial activity against Acinetobacter baumannii ATCC 19606 assessed as reduction in bacterial cell growth incubated for 18 to 20 hrs by broth microdilution method; assay type: functional

## C/C(=N\NC(=N)N)c1sc(-c2ccc(C#Cc3cccc(N)c3)cc2)nc1C
Staphylococcus aureus [1]
  MIC: 4 µg/mL (≈ 10.3 µM)

## C/C(=N\NC(=N)N)c1sc(-c2ccc(C#Cc3ccncc3)cc2)nc1C
Staphylococcus aureus [1]
  MIC: > 64 µg/mL

## C/C(=N\NC(=N)N)c1sc(-c2ccc(C#Cc3cccs3)cc2)nc1C
Staphylococcus aureus [2]
  MIC: 2 µg/mL (≈ 5.27 µM)
Acinetobacter baumannii [3]
  MBC: > 64 µg/mL
Staphylococcus aureus [4]
  MBC: 8 µg/mL (≈ 21.1 µM)
Staphylococcus aureus [5]
  MBC: 2 µg/mL (≈ 5.27 µM)
[6]
  MIC: 1 µg/mL (≈ 2.63 µM)
[7]
  MBC: 1 µg/mL (≈ 2.63 µM)
Staphylococcus aureus [8]
  MIC: 8 µg/mL (≈ 21.1 µM)
Escherichia coli [9]
  MIC: 64 µg/mL (≈ 169 µM)
Staphylococcus aureus [10]
  MIC: 2 µg/mL (≈ 5.27 µM)
[11]
  solubility kinetic at 2 h: 50 µM (≈ 19 µg/mL)
Streptococcus pneumoniae [12]
  MIC: 4 µg/mL (≈ 10.5 µM)
Staphylococcus aureus [13]
  MBC: 4 µg/mL (≈ 10.5 µM)
Listeria monocytogenes [14]
  MBC: 32 µg/mL (≈ 84.3 µM)
Staphylococcus aureus [15]
  MBC: 4 µg/mL (≈ 10.5 µM)
Streptococcus pneumoniae [16]
  MBC: 8 µg/mL (≈ 21.1 µM)
Staphylococcus aureus [17]
  MBC: 2 µg/mL (≈ 5.27 µM)
Staphylococcus aureus [1]
  MIC: 2 µg/mL (≈ 5.27 µM)
Pseudomonas aeruginosa [18]
  MBC: > 64 µg/mL
Escherichia coli [19]
  MIC: > 64 µg/mL
Escherichia coli [20]
  MBC: > 64 µg/mL
Streptococcus pneumoniae [21]
  MIC: 4 µg/mL (≈ 10.5 µM)
Staphylococcus aureus [22]
  MBC: 16 µg/mL (≈ 42.2 µM)
Streptococcus pneumoniae [23]
  MBC: 4 µg/mL (≈ 10.5 µM)
Staphylococcus aureus [24]
  MIC: 8 µg/mL (≈ 21.1 µM)
J774
  Activity: Toxic
Klebsiella pneumoniae [25]
  MIC: > 64 µg/mL
Enterococcus faecalis [26]
  MBC: > 64 µg/mL
Enterococcus faecium [27]
  MIC: 4 µg/mL (≈ 10.5 µM)
Klebsiella pneumoniae [28]
  MBC: > 64 µg/mL
Staphylococcus aureus [29]
  MBC: 16 µg/mL (≈ 42.2 µM)
Staphylococcus aureus [30]
  MIC: 1 µg/mL (≈ 2.63 µM)
Enterococcus faecalis [31]
  MIC: 64 µg/mL (≈ 169 µM)
Pseudomonas aeruginosa [32]
  MIC: > 64 µg/mL
Enterococcus faecium [33]
  MBC: 8 µg/mL (≈ 21.1 µM)
Staphylococcus aureus [34]
  MIC: 1 µg/mL (≈ 2.63 µM)
Escherichia coli [35]
  MBC: > 64 µg/mL
Listeria monocytogenes [36]
  MIC: 8 µg/mL (≈ 21.1 µM)
Staphylococcus aureus [37]
  MIC: 4 µg/mL (≈ 10.5 µM)
Acinetobacter baumannii [38]
  MIC: > 64 µg/mL

## COc1ccccc1C#Cc1ccc(-c2nc(C)c(/C(C)=N/NC(=N)N)s2)cc1
Staphylococcus aureus [1]
  MIC: 16 µg/mL (≈ 39.7 µM)

## C/C(=N\NC(=N)N)c1sc(-c2ccc(C#Cc3ccccc3[N+](=O)[O-])cc2)nc1C
Staphylococcus aureus [1]
  MIC: > 64 µg/mL

## COLISTIN
Acinetobacter baumannii [3]
  MBC: < 0.5 µg/mL
Escherichia coli [9]
  MIC: < 0.5 µg/mL
Pseudomonas aeruginosa [18]
  MBC: 1 µg/mL
Escherichia coli [19]
  MIC: < 0.5 µg/mL
Escherichia coli [20]
  MBC: < 0.5 µg/mL
Klebsiella pneumoniae [25]
  MIC: < 0.5 µg/mL
Klebsiella pneumoniae [28]
  MBC: < 0.5 µg/mL
Pseudomonas aeruginosa [32]
  MIC: 1 µg/mL
Escherichia coli [35]
  MBC: < 0.5 µg/mL
Acinetobacter baumannii [38]
  MIC: < 0.5 µg/mL

## C/C(=N/NC(=N)N)c1ccc(C#Cc2ccc(-c3nc(C)c(/C(C)=N/NC(=N)N)s3)cc2)cc1
Staphylococcus aureus [1]
  MIC: > 64 µg/mL

## CC(=O)NC[C@H]1CN(c2ccc(N3CCOCC3)c(F)c2)C(=O)O1 [LINEZOLID]
Staphylococcus aureus [2]
  MIC: 1 µg/mL (≈ 2.96 µM)
Staphylococcus aureus [4]
  MBC: 32 µg/mL (≈ 94.9 µM)
Staphylococcus aureus [5]
  MBC: 16 µg/mL (≈ 47.4 µM)
[6]
  MIC: ≤ 0.5 µg/mL
[7]
  MBC: 16 µg/mL (≈ 47.4 µM)
Staphylococcus aureus [8]
  MIC: 1 µg/mL (≈ 2.96 µM)
Staphylococcus aureus [10]
  MIC: 32 µg/mL (≈ 94.9 µM)
Staphylococcus aureus [13]
  MBC: 16 µg/mL (≈ 47.4 µM)
Listeria monocytogenes [14]
  MBC: 32 µg/mL (≈ 94.9 µM)
Staphylococcus aureus [15]
  MBC: > 64 µg/mL
Streptococcus pneumoniae [16]
  MBC: 32 µg/mL (≈ 94.9 µM)
Staphylococcus aureus [17]
  MBC: 16 µg/mL (≈ 47.4 µM)
Staphylococcus aureus [1]
  MIC: 1 µg/mL (≈ 2.96 µM)
Staphylococcus aureus [22]
  MBC: 16 µg/mL (≈ 47.4 µM)
Streptococcus pneumoniae [23]
  MBC: 16 µg/mL (≈ 47.4 µM)
Staphylococcus aureus [24]
  MIC: 1 µg/mL (≈ 2.96 µM)
Enterococcus faecalis [26]
  MBC: 32 µg/mL (≈ 94.9 µM)
Enterococcus faecium [27]
  MIC: ≤ 0.5 µg/mL
Staphylococcus aureus [29]
  MBC: 16 µg/mL (≈ 47.4 µM)
Staphylococcus aureus [30]
  MIC: 1 µg/mL (≈ 2.96 µM)
Enterococcus faecium [33]
  MBC: 8 µg/mL (≈ 23.7 µM)
Staphylococcus aureus [34]
  MIC: 1 µg/mL (≈ 2.96 µM)
Listeria monocytogenes [36]
  MIC: ≤ 0.5 µg/mL
